How the values were obtained:
Assay type in all cases: cell-based
Hs294T (human melanoma) = assay: cells; conditions: Table 4
cancer cells = assay: In vitro cytotoxic activity on the panel of cancer cell lines (MTT/SRB), general statements; conditions: Tables 3.1, 3.2, 4 and 5; parent compound salinomycin
[1] = system: A2780Cis (cisplatin-resistant human ovarian cancer); assay: In vitro cytotoxicity, SRB assay, A2780Cis
[2] = system: MIA PaCa-2 (human pancreatic cancer); assay: cells; conditions: Table 4
[3] = system: SNU-16 (human gastric cancer); assay: cells; conditions: Table 4
[4] = system: MV-4-11 (human biphenotypic leukaemia); assay: In vitro cytotoxicity, MTT assay, MV-4-11
[5] = system: NCI-H358 (human lung cancer); assay: cells; conditions: Table 4
[6] = system: PLC/PRF/5 (human liver cancer); assay: cells; conditions: Table 4
[7] = system: BALB/3T3 (normal mouse fibroblasts); assay: In vitro cytotoxicity, SRB assay, normal BALB/3T3 fibroblasts; conditions: Table 4; BALB/3T3 normal mouse fibroblasts; read-out: IC50 (nM) BALB3T3 normal cells
[8] = selectivity coefficient vs normal BALB/3T3 fibroblasts

SMILES: CC[C@@H](C(=O)[C@@H](C)[C@@H](O)[C@H](C)[C@@H]1O[C@@H]([C@@H](CC)C(=O)O)CC[C@@H]1C)[C@H]1O[C@]2(C=C[C@@H](NC(=O)C(=O)NCCc3ccccc3)[C@]3(CC[C@@](C)([C@H]4CC[C@](O)(CC)[C@H](C)O4)O3)O2)[C@H](C)C[C@@H]1C [FLC-00457-1•Na]
- IC50 (Hs294T (human melanoma); Hs 294T, Hs294T human melanoma cells, read-out: IC50 (nM) Hs294T): 2530 nM
- SI Hs294T (Hs294T (human melanoma); [8]): 0.3
- anti-proliferative effect compared to that of the parent compound (cancer cells): several times more potent compared to that of the parent compound
- SI A2780Cis [1]: 76.0
- IC50 ([1]; Homo sapiens, A2780cis, read-out: IC50 (nM) A2780Cis): 9.66 nM
- IC50 ([2]; MIA PaCa-2 human pancreatic cancer cells, read-out: IC50 (nM) MIA PaCa-2): 53.7 nM
- SI MIA PaCa-2 [2, 8]: 13.7
- IC50 ([3]; SNU-16 human gastric cancer cells, read-out: IC50 (nM) SNU-16): 551 nM
- SI SNU-16 [3, 8]: 1.3
- SI MV4-11 [4]: 40.7
- IC50 ([4]; Homo sapiens, MV4-11, read-out: IC50 (nM) MV4-11): 18 nM
- IC50 ([5]; NCI-H358 human lung cancer cells, read-out: IC50 (nM) NCI-H358): 446 nM
- SI NCI-H358 [5, 8]: 1.65
- IC50 ([6]; PLC/PRF/5 human liver cancer cells, read-out: IC50 (nM) PLC/PRF/5): 122 nM
- SI PLC/PRF/5 [6, 8]: 6.0
- IC50 [7]: 734 nM

Reference: patent US20240294541A1, “COMPOUNDS CONSTITUTING C20-MODIFIED SALINOMYCIN DERIVATIVES, A METHOD FOR OBTAINING THE SAME, A COMPOSITION CONTAINING THE SAME AND A USE OF SAID COMPOUNDS” (FILECLO SPOLKA Z OGRANICZONA ODPOWIEDZIALNOSCIA, priority 2021, published 2024)
